Assay results taken from patent US11793782B2, “Therapeutic agents for neurodegenerative diseases” (priority 2017, dated 2023).

Legend:
[1] = tested on: ataxia telangiectasia patients; assay: Case studies, ataxia telangiectasia patients (SARA, SCAFI, video-oculography); format: in vivo, human; conditions: for 8MWT: baseline 8.95 sec; for PATA: baseline 14.5; for 9HPTND: baseline 71.2 sec; for 9HPTD: baseline 85.38 sec
Excerpt: For example, to evaluate overall neurological status, mDRS, a four-domain scale (ambulation, manipulation, language and swallowing), may be applied. Cerebellar function may be evaluated using SARA, an eight-item clinical rating scale (gait, stance, sitting, speech, fine motor function and taxis; range 0-40, where 0 is the best neurological status and 40 the worst), and SCAFI, comprising the 8-m-Walking-Time (8 MW; performed by having patients walking twice as quickly as possible from one line to another excluding turning), 9-Hole-Peg-Test (9HPT) and the number of “PATA” repetitions over 10 s. Subjective impairment and quality of life may be evaluated using the EQ-5D-5L questionnaire and VAS. To assess ocular motor function, 3-dimensional videooculography (EyeSeeCam) may be used to measure the peak velocity of saccades, gain of smooth pursuit, peak slow phase velocity of gaze-evoked nystagmus (gaze-holding function), peak slow phase velocity of optokinetic nystagmus, and gain of horizontal vestibulo-ocular reflex. To evaluate the cognitive state, WAIS-R or WISC-IV, and MoCA, assessing different cognitive domains, including attention and concentration, executive functions, memory, language, visuoconstructional skills, conceptual thinking, calculations, and orientation with a maximum of 30 points and a cut-off score of 26, may be used. The skilled person will know how to perform these and other such tests.
After one month of treatment, the patient was re-evaluated. […] Examination indicated a Scale for Assessment and Rating of Ataxia (SARA) score of 15.5/40. Results from the patient's Spinocerebellar Ataxia Functional Index (SCAFI) analysis were: • Mean 8-meters Walking Test (8 MW): 18.5 s • MW 9-Hole Pegboard Test Dominant (9HPTD) (right): 77.9 s • MW 9-Hole Pegboard Test Non-Dominant (9HPTND): 101.3 s • MW PATA Word Test: 13 • Visual analog scale (as evaluated by the patient): 85
After one month of treatment, the patient was re-evaluated. […] Examination indicated a Scale for Assessment and Rating of Ataxia (SARA) score of 23.5/40.
After slightly over 7 months of treatment, the patient was re-evaluated. […] Examination indicated a Scale for Assessment and Rating of Ataxia (SARA) score of 21.5/40.
After slightly over 1 month of treatment, the patient was re-evaluated. […] The patient also reported that drinking was easier and no longer needed a straw. […] Examination indicated a Scale for Assessment and Rating of Ataxia (SARA) score of 18.5/40.
After about 1 month of treatment, the patient was re-evaluated. […] On medication, they were able to walk with only holding the caregiver's hand.
The patient was evaluated after one month and six months of treatment, respectively. […] The patient, however, was suffering from anxiety, which would be expected to negatively influence the response.

[2] = tested on: NPC Chinese Hamster Ovary (CHO) cells; assay: Relative lysosomal volume via LysoTracker, NPC CHO cells; format: cell-based; conditions: 1 mM, 72 hours, p<0.01 versus untreated NPC1-null
Excerpt: Relative lysosomal volume was quantified via LysoTracker.

[3] = ataxia telangiectasia Patient 1, after one month
[4] = ataxia telangiectasia Patient 1, after one month, Center
[5] = ataxia telangiectasia Patient 1, after one month, Down
[6] = ataxia telangiectasia Patient 1, after one month, Left
[7] = ataxia telangiectasia Patient 1, after one month, Right
[8] = ataxia telangiectasia Patient 1, after one month, Up
[9] = ataxia telangiectasia Patient 2, after one month
[10] = ataxia telangiectasia Patient 2, after one month, Center
[11] = ataxia telangiectasia Patient 2, after one month, Down
[12] = ataxia telangiectasia Patient 2, after one month, Left
[13] = ataxia telangiectasia Patient 2, after one month, Right
[14] = ataxia telangiectasia Patient 2, after one month, Up
[15] = ataxia telangiectasia Patient 3, after slightly over 7 months
[16] = ataxia telangiectasia Patient 3, after slightly over 7 months, Center
[17] = ataxia telangiectasia Patient 3, after slightly over 7 months, Down
[18] = ataxia telangiectasia Patient 3, after slightly over 7 months, Left
[19] = ataxia telangiectasia Patient 3, after slightly over 7 months, Right
[20] = ataxia telangiectasia Patient 4, after slightly over 1 month
[21] = ataxia telangiectasia Patient 4, after slightly over 1 month, Center
[22] = ataxia telangiectasia Patient 4, after slightly over 1 month, Down
[23] = ataxia telangiectasia Patient 4, after slightly over 1 month, Left
[24] = ataxia telangiectasia Patient 4, after slightly over 1 month, Right
[25] = ataxia telangiectasia Patient 5, after about 1 month
[26] = ataxia telangiectasia Patient 5, after about 1 month, Center
[27] = ataxia telangiectasia Patient 5, after about 1 month, Down
[28] = ataxia telangiectasia Patient 5, after about 1 month, Left
[29] = ataxia telangiectasia Patient 5, after about 1 month, Right
[30] = ataxia telangiectasia Patient 5, after about 1 month, Up
[31] = ataxia telangiectasia Patient 5, after almost 7 months
[32] = ataxia telangiectasia Patient 5, after slightly over a year
[33] = ataxia telangiectasia Patient 6, after one month
[34] = ataxia telangiectasia Patient 6, after six months

CC(=O)NC(CC(C)C)C(=O)O (racemic) [acetyl-DL-leucine]
Caregivers' report [1, 3]: improvement of speech and gait
Video-oculography (summary) [1, 3]: significant improvement of fixation stability and decrease of intensity of downbeat-nystagmus
Slow phase velocity of the gaze-holding nystagmus, Horizontal [1, 4]: 0.4
Slow phase velocity of the gaze-holding nystagmus, Vertical [1, 4]: 4.77
Slow phase velocity of the gaze-holding nystagmus, Horizontal [1, 5]: −0.44
Slow phase velocity of the gaze-holding nystagmus, Vertical [1, 5]: 5.29
Slow phase velocity of the gaze-holding nystagmus, Horizontal [1, 6]: 8.2
Slow phase velocity of the gaze-holding nystagmus, Vertical [1, 6]: 8.85
Slow phase velocity of the gaze-holding nystagmus, Horizontal [1, 7]: −0.95
Slow phase velocity of the gaze-holding nystagmus, Vertical [1, 7]: 4.83
Slow phase velocity of the gaze-holding nystagmus, Horizontal [1, 8]: 0.72
Slow phase velocity of the gaze-holding nystagmus, Vertical [1, 8]: 2.67
PATA Word Test ([1]; ataxia telangiectasia Patient 1, after one month, before 12.5): 13
Mean 8-meters Walking Test (8 MW) ([1]; ataxia telangiectasia Patient 1, after one month, before 21.8 s): 18.5 s
9-Hole Pegboard Test Dominant (9HPTD) (right) ([1]; ataxia telangiectasia Patient 1, after one month, before 90.2 s): 77.9 s
Visual analog scale (as evaluated by the patient) ([1]; ataxia telangiectasia Patient 1, after one month, before 99): 85
9-Hole Pegboard Test Non-Dominant (9HPTND) ([1]; ataxia telangiectasia Patient 1, after one month, before 125.8 s): 101.3 s
Caregivers' report [1, 9]: improvement of fine motor function, hand tremor, and speech
Mean 8-meters Walking Test (8 MW) [1, 9]: not able to perform without support
Video-oculography (summary) [1, 9]: improvement of fixation stability and significant improvement of downbeat-nystagmus intensity
Slow phase velocity of the gaze-holding nystagmus, Horizontal [1, 10]: −1.45
Slow phase velocity of the gaze-holding nystagmus, Vertical [1, 10]: 5.6
Slow phase velocity of the gaze-holding nystagmus, Horizontal [1, 11]: −2.5
Slow phase velocity of the gaze-holding nystagmus, Vertical [1, 11]: 4.69
Slow phase velocity of the gaze-holding nystagmus, Horizontal [1, 12]: 3.58
Slow phase velocity of the gaze-holding nystagmus, Vertical [1, 12]: 7
Slow phase velocity of the gaze-holding nystagmus, Horizontal [1, 13]: −3.45
Slow phase velocity of the gaze-holding nystagmus, Vertical [1, 13]: 6.56
Slow phase velocity of the gaze-holding nystagmus, Horizontal [1, 14]: −0.51
Slow phase velocity of the gaze-holding nystagmus, Vertical [1, 14]: 3.15
PATA Word Test ([1]; ataxia telangiectasia Patient 2, after one month, before 13.5): 14
Visual analog scale (as evaluated by the patient) ([1]; ataxia telangiectasia Patient 2, after one month, before 45): 80
9-Hole Pegboard Test Non-Dominant (9HPTND) ([1]; ataxia telangiectasia Patient 2, after one month, before 299.2 s): 300 s
9-Hole Pegboard Test Dominant (9HPTD) (right) ([1]; ataxia telangiectasia Patient 2, after one month, before 300 s): 300 s
Caregivers' and patient's report [1, 15]: general improvement of well-being
Mean 8-meters Walking Test (8 MW) [1, 15]: not able to perform
Video-oculography (summary) [1, 15]: significant improvement of fixation stability and decrease of intensity of gaze-holding nystagmus at all positions
Slow phase velocity of the gaze-holding nystagmus, Horizontal [1, 16]: −0.1 °/s
Slow phase velocity of the gaze-holding nystagmus, Vertical [1, 16]: 0.4 °/s
Slow phase velocity of the gaze-holding nystagmus, Horizontal [1, 17]: −0.6 °/s
Slow phase velocity of the gaze-holding nystagmus, Vertical [1, 17]: 1.2 °/s
Slow phase velocity of the gaze-holding nystagmus, Horizontal [1, 18]: 1.7 °/s
Slow phase velocity of the gaze-holding nystagmus, Vertical [1, 18]: 0.1 °/s
Slow phase velocity of the gaze-holding nystagmus, Horizontal [1, 19]: −4.2 °/s
Slow phase velocity of the gaze-holding nystagmus, Vertical [1, 19]: 1.7 °/s
PATA Word Test ([1]; ataxia telangiectasia Patient 3, after slightly over 7 months, before 14): 10
Visual analog scale (as evaluated by the patient) ([1]; ataxia telangiectasia Patient 3, after slightly over 7 months, before 80): 80
9-Hole Pegboard Test Dominant (9HPTD) (right) ([1]; ataxia telangiectasia Patient 3, after slightly over 7 months, before 150 s): 124.5 s
9-Hole Pegboard Test Non-Dominant (9HPTND) ([1]; ataxia telangiectasia Patient 3, after slightly over 7 months, before 161.6 s): 147.5 s
Mean 8-meters Walking Test (8 MW) [1, 20]: not able to perform
Patient's and parent's report [1, 20]: improvement in handwriting
Video-oculography (summary) [1, 20]: general improvement of fixation stability and decrease of intensity of spontaneous and gaze-holding nystagmus at all positions
Slow phase velocity of the gaze-holding nystagmus, Horizontal [1, 21]: −0.2 °/s
Slow phase velocity of the gaze-holding nystagmus, Vertical [1, 21]: 4.8 °/s
Slow phase velocity of the gaze-holding nystagmus, Horizontal [1, 22]: −0.7 °/s
Slow phase velocity of the gaze-holding nystagmus, Vertical [1, 22]: −2.3 °/s
Slow phase velocity of the gaze-holding nystagmus, Horizontal [1, 23]: −0.8 °/s
Slow phase velocity of the gaze-holding nystagmus, Vertical [1, 23]: 1.9 °/s
Slow phase velocity of the gaze-holding nystagmus, Horizontal [1, 24]: −1 °/s
Slow phase velocity of the gaze-holding nystagmus, Vertical [1, 24]: 0.3 °/s
PATA Word Test ([1]; ataxia telangiectasia Patient 4, after slightly over 1 month, before 14): 15.5
9-Hole Pegboard Test Non-Dominant (9HPTND) ([1]; ataxia telangiectasia Patient 4, after slightly over 1 month, before 52.3 s): 101.7 s
Visual analog scale (as evaluated by the patient) ([1]; ataxia telangiectasia Patient 4, after slightly over 1 month, before 70): 70
9-Hole Pegboard Test Dominant (9HPTD) (right) ([1]; ataxia telangiectasia Patient 4, after slightly over 1 month, before 124.5 s): 93.5 s
Mother's report ([1]; ataxia telangiectasia Patient 5, 5 g/day, after about 1 month): significant improvement of stability of the gait
Mean 8-meters Walking Test (8 MW) [1, 25]: not able to walk without support
Weight gained [1, 25]: 1.5 kg
Slow-phase velocity (SPV) of fixation and gaze-holding nystagmus, Horizontal [1, 26]: 0.79 °/s
Slow-phase velocity (SPV) of fixation and gaze-holding nystagmus, Vertical [1, 26]: 3.54 °/s
Slow-phase velocity (SPV) of fixation and gaze-holding nystagmus, Horizontal [1, 27]: 0.62 °/s
Slow-phase velocity (SPV) of fixation and gaze-holding nystagmus, Vertical [1, 27]: 1.08 °/s
Slow-phase velocity (SPV) of fixation and gaze-holding nystagmus, Horizontal [1, 28]: 1.22 °/s
Slow-phase velocity (SPV) of fixation and gaze-holding nystagmus, Vertical [1, 28]: 2.53 °/s
Slow-phase velocity (SPV) of fixation and gaze-holding nystagmus, Horizontal [1, 29]: 1.17 °/s
Slow-phase velocity (SPV) of fixation and gaze-holding nystagmus, Vertical [1, 29]: 2.36 °/s
Slow-phase velocity (SPV) of fixation and gaze-holding nystagmus, Horizontal [1, 30]: 0.33 °/s
Slow-phase velocity (SPV) of fixation and gaze-holding nystagmus, Vertical [1, 30]: 1.71 °/s
PATA Word Test ([1]; ataxia telangiectasia Patient 5, after about 1 month, before 6): 7.5
Visual analog scale (as evaluated by the patient) ([1]; ataxia telangiectasia Patient 5, after about 1 month, before 90): 80
9-Hole Pegboard Test Dominant (9HPTD) (right) ([1]; ataxia telangiectasia Patient 5, after about 1 month, before 102.7 s): 103.6 s
9-Hole Pegboard Test Non-Dominant (9HPTND) ([1]; ataxia telangiectasia Patient 5, after about 1 month, before 116.8 s): 88.8 s
9-Hole Pegboard Test Dominant (9HPTD) (right) [1, 31]: 92.4 s
9-Hole Pegboard Test Non-Dominant (9HPTND) [1, 31]: 98.3 s
Further weight gained [1, 31]: 3 kg
Mother's report [1, 31]: significantly more stable gait
PATA Word Test [1, 31]: 11
Visual analog scale (as evaluated by the patient) [1, 31]: 100
Mean 8-meters Walking Test (8 MW) ([1]; ataxia telangiectasia Patient 5, after almost 7 months, holding of the hand): 15.3 s
9-Hole Pegboard Test Dominant (9HPTD) (right) [1, 32]: 95.6 s
9-Hole Pegboard Test Non-Dominant (9HPTND) [1, 32]: 127.6 s
Clinical observation [1, 32]: improved social interaction, activity, and agility
PATA Word Test [1, 32]: 14.5
Visual analog scale (as evaluated by the patient) [1, 32]: 95
Mean 8-meters Walking Test (8 MW) ([1]; ataxia telangiectasia Patient 5, after slightly over a year, able to walk by themself, parent held hand): 13.9 s
Adverse observation ([1]; ataxia telangiectasia Patient 5, after slightly over a year, suspected infantile migraine): repeatedly occuring frontal localized pain with vomiting in the morning
Clinical observation [1, 33]: increased fine motor skills with reduced hand tremor, improved postural stability and gait, increased enunciation, and increased self-confidence
8MWT [1, 33]: 8.45 s
PATA [1, 33]: 15.5
9HPTND [1, 33]: 70.39 s
9HPTD [1, 33]: 81.95 s
Clinical observation [1, 34]: stable general conditions, stable gait and stance, and improved handwriting
8MWT [1, 34]: 7.53 s
SARA ([1]; ataxia telangiectasia Patient 6, after six months, baseline 11/40): 11/40
PATA [1, 34]: 13
9HPTND [1, 34]: 80.32 s
9HPTD [1, 34]: 136.27 s
Lysosomal volume (LysoTracker) [2]: significantly reduced lysosomal volume
